Experimental data published in ChEMBL document CHEMBL4706692, “CC-90009: A Cereblon E3 Ligase Modulating Drug That Promotes Selective Degradation of GSPT1 for the Treatment of Acute Myeloid Leukemia” (J Med Chem, 2021).

Key:
THLE-2 = test: Cytotoxicity against human THLE-2 cells assessed as cell viability incubated for 72 hrs by cell titer glo assay; format: cell-based; settings: THLE-2, 72 h
KG-1 = test: Antiproliferative activity against human KG-1 cells assessed as reduction in cell viability incubated for 72 hrs by cell titer glo assay; format: functional, cell-based; settings: KG-1, 72 h
[1] = Selectivity index, ratio of IC50 for cytotoxicity against human THLE-2 cells to IC50 for antiproliferative activity against human KG-1 cells

Row | Compound | IC50 (THLE-2) | IC50 (KG-1) | Ratio IC50 [1]
1 | O=C1CCC(N2Cc3cc(CNC(=O)C(F)(F)c4ccccc4)ccc3C2=O)C(=O)N1 (stereo unspecified) | > 10000 nM | 97 nM | >100
2 | O=C(Cc1ccccc1)NCc1ccc2c(c1)CN(C1CCC(=O)NC1=O)C2=O (stereo unspecified) | 231 nM | 37 nM | 6
3 | O=C1CCC(N2Cc3cc(CNC(=O)C(=O)c4ccccc4)ccc3C2=O)C(=O)N1 (stereo unspecified) | 196 nM | 9 nM | 22
4 | O=C1CCC(N2Cc3cc(CNC(=O)c4ccccc4)ccc3C2=O)C(=O)N1 (stereo unspecified) | > 10000 nM | > 10000 nM | –
